Experimental data from patent publication US5696276A, “Process for preparing 5,8-dihydroxynaphthoquinone derivatives, novel 5,8-dihydroxynaphthoquinone derivatives and their use as anticancer agent” (Kuhnil Pharmaceutical Co., Ltd., priority 1993, dated 1997).
≈ marks a conversion by molar mass, not a printed value. Where two headings read alike, the source gives them in different places.

Assays:
[1] = tested on: L1210 cells; test: Cytotoxic activity against L1210 cells; type: cell-based; settings: Mus musculus, read-out: ED50, cytotoxic activity against L1210
Outline: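 Log-phase L1210 cells (5×10^4 cells/ml) in Fisher medium exposed 48 h at 37 °C in CO2 to three dilutions of sample dissolved in ethanol or DMSO. Cells counted by haemacytometer; growth relative to control; ED50 (μg/ml) from linear regression of growth % on log concentration.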

[2] = tested on: HL-60 cells; test: Cytotoxic activity against HL-60 cells; type: cell-based; settings: Homo sapiens, read-out: ED50, cytotoxic activity against HL-60
Method: As in the test for the cytotoxic activity against L1210 cells, the test samples were dissoved in ethanol or dimethylsulfoxide in a certain concentration. 0.1 ml of the sample solution was mixed with 0.9 ml of a fresh medium to prepare the dilutions. To each two test tubes having a screw cap were added 100, 50, 25 μl, respectively, of the sample dilutions by means of a micropipet. To each test tube for the test group and the control group (2√n: n=number of the samples) was added 5 ml of the dilutions of HL-60 cells and K-562 cells which were cultured and activated before 24 hours from the beginning of experiment and then diluted in a concentration of 1×10^5 cells/mi. All test tubes were cultured for 48 hours in a CO2 incubator at 37° C. and then the number of cells was counted using a haemacytometer.
The ED50 value is defined as a concentration (μg/ml) of the sample which inhibits the growth of cancer cells by 50% of the control group and determined according to a method described in NIC's mannual (NIC=National Cancer Institue, U.S.A.). The growth rate Y(%) of cells in the presence of the test sample in each concentration was calculated according to the followign equation: […]
In the above equation, T means the average cell number per ml in the test group after incubation for 48 hours in the presence of the test samples in each concentration, C means the average cell number per ml in the control group after incubation for 48 hours, and Co means the average cell number per ml in the control group at the beginning of incubation. The Y(%) value at each concentration and log10 value of each concentration were obtained and the regression curve was constructed according to the following equation from those obtained values. In this case, when all the Y(%) value obtained at each concentration is greater than 55% or lower than 45%, the experiment was repeatedly conducted.
To construct the regression curve Y=A+BX the values A and B were obtained using the following equation. [formula]
In the above, the value N is the number of selected points which is greater than 2 and lower than, or identical with, the number of cencentration of the test sample, Xi is log(concentration) i, and Yi is the growth ratio at (concentration)i. The value of ED50 was obtained for those obtained slope and intercept.

[3] = tested on: A549 cancer cells; test: Cytotoxic activity against A549 cancer cells (sulforhodamin B method); type: cell-based; settings: Homo sapiens, read-out: ED50, cytotoxic activity against A549
Outline: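 Cells seeded at 8×10^4 per well, attached 24 h, then exposed 48 h to six log-spaced concentrations in triplicate. TCA-fixed, SRB-stained, OD read at 520 nm; growth inhibition computed relative to time-zero and untreated counts, IC50 from regression.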

[4] = tested on: S-180 sarcoma cells; test: Animal experiment using Sarcoma S-180 cells (survival of mouse); type: in vivo, male ICR mouse; settings: for responders at 15 µmol/kg / response vs control in vivo at 15 µmol/kg / responders at 10 µmol/kg / response vs control in vivo at 10 µmol/kg: ip, S-180 ICR mouse, intraperitoneal, 7 to 8 injections; for responders at 15 µmol/kg / response vs control in vivo at 15 µmol/kg: daily dose 15 μmole (mg/kg/day given per compound); for responders at 15 µmol/kg / responders at 10 µmol/kg: read-out: Number of mouse survived for 50 days (converted); for responders at 10 µmol/kg / response vs control in vivo at 10 µmol/kg: daily dose 10 μmole (mg/kg/day given per compound)
Outline: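 Male ICR mice (20 to 25 g) received intraperitoneal transplants of 0.1 ml S-180 cell suspension (10^7 cells/ml), prepared from ascites by washing in cold physiological saline. After 24 hours, groups of 8 to 9 mice received 7 to 8 ip injections of sample in dimethylsulfoxide diluted with saline. Controls got 2% dimethylsulfoxide-saline. Survival (T/C, %) was scored against control death.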

[5] = A549 cells, SRB method, 48 hours

Row | Compound | IC50 ([1]; L1210 cells, 48 hours, 37° C.) [µg/mL] | IC50 ([2]; HL-60 cells, 48 hours, 37° C.) [µg/mL] | IC50 [3, 5] [µg/mL] | responders at 15 µmol/kg ([4]; 1200 h) [%] | response vs control in vivo at 15 µmol/kg ([4]; read-out: T/C) [%] | responders at 10 µmol/kg ([4]; 1200 h) [%] | response vs control in vivo at 10 µmol/kg ([4]; read-out: T/C) [%] | IC50 ([1]; L1210, 48 h) [µg/mL] | IC50 ([2]; HL-60, 48 h) [µg/mL] | IC50 ([3]; A549, 48 h) [µg/mL] | responders at 5 µmol/kg ([4]; Mus musculus, S-180, ip, 1200 h, read-out: Number of mouse survived for 50 days) [%] | response vs control in vivo at 5 µmol/kg ([4]; Mus musculus, S-180, ip, read-out: T/C) [%]
1 | CCCCCCCCCCCC(=O)OC(CC=C(C)C)C1=CC(=O)c2c(O)ccc(O)c2C1=O (stereo not drawn) | 0.7 (≈ 1.49 µM) | 1 (≈ 2.12 µM) | > 20 | 0 | 110 | – | – | – | – | – | – | –
2 | CCCCCCCC/C=C\CCCCCCCC(=O)OC(CC=C(C)C)C1=CC(=O)c2c(O)ccc(O)c2C1=O (stereo not drawn) | 2.4 (≈ 4.34 µM) | 9.6 (≈ 17.4 µM) | > 20 | 0 | 130 | – | – | – | – | – | – | –
3 | CCCCCCCCCCCCCCCCCC(=O)OC(CC=C(C)C)C1=CC(=O)c2c(O)ccc(O)c2C1=O (stereo not drawn) | 1.1 (≈ 1.98 µM) | 10 (≈ 18 µM) | > 20 | 0 | 110 | – | – | – | – | – | – | –
4 | CC(C)=CCC(OC(=O)c1ccccc1)C1=CC(=O)c2c(O)ccc(O)c2C1=O (stereo not drawn) [2-(1-benzoyloxy-4-methyl-3-pentenyl)-5,8-dihydroxy-1,4-naphthoquinone] | 0.1 (≈ 0.255 µM) | 0.1 (≈ 0.255 µM) | 2.1 (≈ 5.35 µM) | – | – | 0 | 135 | – | – | – | – | –
5 | CC(C)=CCC(OC(=O)C(c1ccccc1)c1ccccc1)C1=CC(=O)c2c(O)ccc(O)c2C1=O (stereo not drawn) [2-(1-diphenylacetyloxy-4-methyl-3-pentenyl)-5,8-dihydroxy-1,4-naphthoquinone] | 0.2 (≈ 0.414 µM) | 0.4 (≈ 0.829 µM) | 6.3 (≈ 13.1 µM) | 25 | 208 | – | – | – | – | – | – | –
6 | CC(C)=CCC(OC(=O)C(C)C)C1=CC(=O)c2c(O)ccc(O)c2C1=O (stereo not drawn) [2-(1-isobutanoyloxy-4-methyl-3-pentenyl)-5,8-dihydroxy-1,4-naphthoquinone] | 0.003 (≈ 0.00837 µM) | 0.2 (≈ 0.558 µM) | 1.9 (≈ 5.3 µM) | – | – | 12.5 | 185 | – | – | – | – | –
7 | CCC=CCC=CCC=CCCCCCCCC(=O)OC(CC=C(C)C)C1=CC(=O)c2c(O)ccc(O)c2C1=O (stereo not drawn) [2-(1-linolenyloxy-4-methyl-3-pentenyl)-5,8-dihydroxy-1,4-naphthoquinone] | 1.5 (≈ 2.73 µM) | 4.8 (≈ 8.75 µM) | > 20 | 0 | 125 | – | – | – | – | – | – | –
8 | CC(C)=CCC(OC(=O)CCl)C1=CC(=O)c2c(O)ccc(O)c2C1=O (stereo not drawn) [2-(1-monochloroacetyloxy-4-methyl-3-pentenyl)-5,8-dihydroxy-1,4-naphthoquinone] | 0.12 (≈ 0.329 µM) | 0.3 (≈ 0.822 µM) | 4 (≈ 11 µM) | – | – | 0 | 102 | – | – | – | – | –
9 | CCCC(=O)OC(CC=C(C)C)C1=CC(=O)c2c(O)ccc(O)c2C1=O (stereo not drawn) [2-(1-n-butanoyloxy-4-methyl-3-pentenyl)-5,8-dihydroxy-1,4-naphthoquinone] | 0.01 (≈ 0.0279 µM) | 0.1 (≈ 0.279 µM) | 2.5 (≈ 6.98 µM) | – | – | 0 | 181 | – | – | – | – | –
10 | CCCCCCCCCC(=O)OC(CC=C(C)C)C1=CC(=O)c2c(O)ccc(O)c2C1=O (stereo not drawn) [2-(1-n-decanoyloxy-4-methyl-3-pentenyl)-5,8-dihydroxy-1,4-naphthoquinone] | 0.7 (≈ 1.58 µM) | 1.1 (≈ 2.49 µM) | 15 (≈ 33.9 µM) | 0 | 110 | – | – | – | – | – | – | –
11 | CCCCCC(=O)OC(CC=C(C)C)C1=CC(=O)c2c(O)ccc(O)c2C1=O (stereo not drawn) [2-(1-n-hexanoyloxy-4-methyl-3-pentenyl)-5,8-dihydroxy-1,4-naphthoquinone] | 0.2 (≈ 0.518 µM) | 0.7 (≈ 1.81 µM) | 2.6 (≈ 6.73 µM) | – | – | 33.3 | 214 | – | – | – | – | –
12 | CCCCCCCCC(=O)OC(CC=C(C)C)C1=CC(=O)c2c(O)ccc(O)c2C1=O (stereo not drawn) [2-(1-n-nonanoyloxy-4-methyl-3-pentenyl)-5,8-dihydroxy-1,4-naphthoquinone] | 0.5 (≈ 1.17 µM) | 1 (≈ 2.33 µM) | 6.9 (≈ 16.1 µM) | – | – | 0 | 206 | – | – | – | – | –
13 | CCCCCCCC(=O)OC(CC=C(C)C)C1=CC(=O)c2c(O)ccc(O)c2C1=O (stereo not drawn) [2-(1-n-octanoyloxy-4-methyl-3-pentenyl)-5,8-dihydroxy-1,4-naphthoquinone] | 0.2 (≈ 0.483 µM) | 0.7 (≈ 1.69 µM) | 4.3 (≈ 10.4 µM) | 22.2 | 235 | – | – | – | – | – | – | –
14 | CCCCC(=O)OC(CC=C(C)C)C1=CC(=O)c2c(O)ccc(O)c2C1=O (stereo not drawn) [2-(1-n-pentanoyloxy-4-methyl-3-pentenyl)-5,8-dihydroxy-1,4-naphthoquinone] | 0.2 (≈ 0.537 µM) | 0.6 (≈ 1.61 µM) | 2.5 (≈ 6.71 µM) | – | – | 0 | 165 | – | – | – | – | –
15 | CCC(=O)OC(CC=C(C)C)C1=CC(=O)c2c(O)ccc(O)c2C1=O (stereo not drawn) [2-(1-n-propionyloxy-4-methyl-3-pentenyl)-5,8-dihydroxy-1,4-naphthoquinone] | – | – | – | – | – | – | – | 0.03 (≈ 0.0871 µM) | 0.04 (≈ 0.116 µM) | 1.9 (≈ 5.52 µM) | 0 | 100
16 | CCCCCCCCCCCCCCCC(=O)OC(CC=C(C)C)C1=CC(=O)c2c(O)ccc(O)c2C1=O (stereo not drawn) [2-(1-palmityloxy-4-methyl-3-pentenyl)-5,8-dihydroxy-1,4-naphthoquinone] | 2.1 (≈ 3.99 µM) | 3 (≈ 5.7 µM) | > 20 | 0 | 109 | – | – | – | – | – | – | –
17 | CC(C)=CCC(OC(=O)Cc1ccccc1)C1=CC(=O)c2c(O)ccc(O)c2C1=O (stereo not drawn) [2-(1-phenylacetyloxy-4-methyl-3-pentenyl)-5,8-dihydroxy-1,4-naphthoquinone] | 0.1 (≈ 0.246 µM) | 0.4 (≈ 0.984 µM) | 1.1 (≈ 2.71 µM) | – | – | 0 | 183 | – | – | – | – | –
18 | CC(C)=CCC(OC(=O)C(Cl)(Cl)Cl)C1=CC(=O)c2c(O)ccc(O)c2C1=O (stereo not drawn) [2-(1-trichloroacetyloxy-4-methyl-3-pentenyl)-5,8-dihydroxy-1,4-naphthoquinone] | 0.01 (≈ 0.0231 µM) | 0.3 (≈ 0.692 µM) | 2 (≈ 4.61 µM) | – | – | 0 | 134 | – | – | – | – | –
